# Measured values published in US11046691B1 (IDEAYA BIOSCIENCES, INC., priority 2018, dated 2021).
# Target: hMAT2A (Homo sapiens (Human), UniProt P31153)
# Experiment: Phosphate Sensor Fluorescence Assay (MAT2A enzyme inhibition)
# Format: biochemical
# Details: L-methionine 500 uM, ATP 500 uM, class symbols
# Protocol: The ability of the compound of present disclosure to inhibit MAT2A enzyme was determined using the Malachite Green or Phosphate Sensor Fluorescence Assay described below.
# B. Phosphate Sensor Fluorescence Assay
# MAT2A enzyme is incubated with a test compound in DMSO or DMSO and its substrates (L-methionine and ATP) in a microtiter plate. The enzymatic reaction is stopped by the addition of Working Phosphate Sensor Mixture. The plate is analyzed for fluorescence at 450 nm.
# Assay Buffer: 50 mM Tris, pH 7.5/50 mM KCl/10 mM MgCl2/0.01% Brij-35/1 mM DTT/0.1% BGG/40 nM PNP/6 uM 7-MEG
# L-methionine: 500 uM before the addition of Working Phosphate Sensor Mixture
# ATP: 500 uM before the addition of Working Phosphate Sensor Mixture
# Test compounds or DMSO were added to the appropriate well suing D300e digital dispenser. 5 μl/well of Assay Buffer was added to the wells corresponding to the negative control and 5 μl/well of MAT2A was added to all the wells except for those corresponding to the negative control. After incubating the plate at room temperature for 15 minutes, 5 μl/well of the 1 mM L-methionine/1 mM ATP mixture was added to all wells. The plate was centrifuged at 1000 rpm for 1 minute and then incubated at room temperature for 1 hour. 5 μl of the Working Phosphate Sensor Mixture was added to all wells and the plate was centrifuged at 1000 rpm for 1 minute. The plate was read for fluorescence at 450 nm after exciting at 430 nm.
# Percent inhibition was calculated in Chemical and Biological Information System (CBIS), (ChemInnovation Software Inc.). Curves were fitted by CBIS as % inhibition vs. log [compound concentration] using a 4-parameter inhibition model. Fit=(A+((B−A)/(1+((C/x)^D)))) Res=(y−fit)
# Chain of hMAT2A (P31153 whole entry): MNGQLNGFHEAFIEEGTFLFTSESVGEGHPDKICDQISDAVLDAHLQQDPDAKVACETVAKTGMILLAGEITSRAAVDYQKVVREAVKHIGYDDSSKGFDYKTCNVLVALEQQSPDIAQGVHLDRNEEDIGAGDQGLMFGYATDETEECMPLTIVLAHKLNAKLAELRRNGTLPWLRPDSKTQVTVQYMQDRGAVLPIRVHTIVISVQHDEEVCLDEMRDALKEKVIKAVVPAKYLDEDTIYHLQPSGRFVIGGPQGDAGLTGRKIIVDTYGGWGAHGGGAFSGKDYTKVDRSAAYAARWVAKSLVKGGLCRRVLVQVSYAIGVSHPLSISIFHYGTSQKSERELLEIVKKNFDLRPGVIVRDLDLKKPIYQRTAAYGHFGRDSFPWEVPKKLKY
row,IC50 [nM],Compound
1,< 200,1-[2-(difluoromethoxy)(3--pyridyl)]-7- cyclopropyl-4-[(cyclopropylmethyl)- amino]hydroquinazolin-2-one [Example 416]
2,< 200,"O=c1nc(N2CC[C@@H](O)C2)c2ccc(Cl)cc2n1-c1ccccc1Cl (atropisomer, axis not shown) [Example 135, 4-((3R)-3-hydroxypyrrolidin-1-yl)-7-chloro-1-(2-chlorophenyl)hydro-quinazolin-2-one]"
3,< 200,"C[C@H](CO)Nc1nc(=O)n(-c2ccccc2Cl)c2nc(C(F)(F)F)ccc12 (atropisomer, axis not shown) [Example 323, (R)-(1Sa)-(2-chlorophenyl)-4-((1-hydroxypropan-2-yl)amino)-7-(trifluoro-methyl)pyrido-[2,3-d]pyrimidin-2(1H)-one]"
4,< 200,"O=c1nc(N[C@@H]2C[C@H]2F)c2ccc(OC(F)(F)F)cc2n1-c1ccccc1Cl (atropisomer, axis not shown) [Example 404, 4-[((1R,2R)-2-fluorocyclopropyl)-amino]-1-(2-chlorophenyl)-7-(trifluoromethoxy)hydroquinazolin-2-one]"
5,< 200,"O=c1nc(N[C@@H]2CC[C@@H]2O)c2ccc(C(F)(F)F)nc2n1-c1ccccc1Cl (atropisomer, axis not shown; (Sa)) [Example 335, 4-[((2S,1R)-2-hydroxycyclobutyl)-amino]-(1Sa)-(2-chlorophenyl)-7-(trifluoromethyl)hydro-pyrido[2,3-d]-pyrimidin-2(1H)-one]"
6,< 200,"O=c1nc(N[C@H]2CC[C@@H]2O)c2ccc(C(F)(F)F)nc2n1-c1ccccc1Cl (atropisomer, axis not shown; (Sa)) [Example 337, 4-[((1S,2 S)-2-hydroxycyclobutyl)-amino]-(1Sa)-(2-chlorophenyl)-7-(trifluoromethyl)hydro-pyridino [2,3-d]-pyrimidin-2-one]"
7,< 200,CC1(O)CCN(c2nc(=O)n(-c3ccccc3Cl)c3nc(C(F)(F)F)ccc23)C1 (racemic) [Example 255]
8,1000 to 10000,"CC1(C)[C@H](O)C[C@@H]1Nc1nc(=O)n(-c2ccccc2Cl)c2nc(C(F)(F)F)ccc12 (relative stereo) [Example 276, 4-[((cis)-3-hydroxy-2,2-dimethylcyclo-butyl)amino]-1-(2-chlorophenyl)-7-(trifluoromethyl)-pyrido[2,3-d]-pyrimidin-2(1H)-one]"
9,200 to 500,"CNc1nc(=O)n(-c2cccc(C(F)(F)F)c2)c2cc(Cl)ccc12 [Example 86, 7-chloro-4-(methylamino)-1-[3-(trifluoromethyl)phenyl]hydroquina-zolin-2-one]"
10,< 200,"O=c1nc(N2CC[C@@H](O)C2)c2ccc(Cl)cc2n1-c1ccccc1Br [Example 87, 4-((3R)-3-hydroxypyrrolidin-1-yl)-1-(2-bromophenyl)-7-chlorohydroquinazolin-2-one]"
11,< 200,"CC1(Nc2nc(=O)n(-c3ccccc3Cl)c3nc(C(F)(F)F)ccc23)CC1 [Example 88, 1-(2-chlorophenyl)-4((1-methylcyclo-propyl)amino)-7-(trifluoromethyl)-pyrido[2,3-d]pyrimidin-2(1H)-one]"
12,200 to 500,"CNc1nc(=O)n(-c2ccnc(OC)c2)c2nc(C(F)(F)F)ccc12 [Example 90, 1-(2-methoxypyridin-4-yl)-4-(methyl-amino)-7-(trifluoromethyl)pyrido[2,3-d]-pyrimidin-2(1H)-one]"
13,< 200,"CNc1nc(=O)n(-c2cccc(OC)n2)c2nc(C(F)(F)F)ccc12 [Example 91, 1-(6-methoxypyridin-2-yl)-4-(methylamino)-7-(trifluoromethyl)-pyrido[2,3-d]pyrimidin-2(1H)-one]"
14,200 to 500,"CNc1nc(=O)n(-c2cnccc2OC)c2nc(C(F)(F)F)ccc12 [Example 92, 1-(4-methoxypyridin-3-yl)-4-(methyl-amino)-7-(trifluoromethyl)pyrido[2,3-d]pyrimidin-2(1H)-one]"
15,500 to 1000,"O=c1nc(N2CCC2)c2ccc(N3CCC3)cc2n1-c1ccccc1 [Example 94, 4,7-di(azetidin-1-yl)-1-phenylhydro-quinazolin-2-one]"
16,< 200,"C=Cc1ccc2c(NC)nc(=O)n(-c3ccccc3)c2c1 [Example 96, 4-(methylamino)-1-phenyl-7-vinylhydro-quinazolin-2-one]"

row,IC50 [nM],Compound
1,< 200,"CCCc1ccc2c(NC)nc(=O)n(-c3ccccc3)c2c1 [Example 97, 4-(methylamino)-1-phenyl-7-propylhydroquinazolin-2-one]"
2,< 200,"Nc1nc(=O)n(-c2ccccc2Cl)c2cc(C(F)(F)F)ccc12 [Example 99, 4-amino-1-(2-chlorophenyl)-7-(trifluoromethyl)hydroquinazolin-2-one]"
3,< 200,"O=c1nc(NCC(F)F)c2ccc(C(F)(F)F)cc2n1-c1ccccc1Cl [Example 100, 1-(2-chlorophenyl)-4-[(2,2-difluoro-ethyl)amino]-7-(trifluoromethyl)hy-droquinazolin-2-one]"
4,< 200,"O=c1nc(NCC(F)(F)F)c2ccc(C(F)(F)F)cc2n1-c1ccccc1Cl [Example 101, 1-(2-chlorophenyl)-4-[(2,2,2-trifluoro-ethyl)amino]-7-(trifluoromethyl)hydro-quinazolin-2-one]"
5,< 200,"CNc1nc(=O)n(-c2ccccc2Cl)c2cc(C(F)(F)F)ccc12 [Example 102, 1-(2-chlorophenyl)-4-(methylamino)-7-(trifluoromethyl)hydroquinazolin-2-one]"
6,< 200,"O=c1[nH]c(=O)n(-c2ccccc2Cl)c2cc(C(F)(F)F)ccc12 [Example 103, 1-(2-chlorophenyl)-7-(trifluoromethyl)-1,3-dihydroquinazoline-2,4-dione]"
7,200 to 500,"CCc1nc(=O)n(-c2ccccc2)c2cc(Cl)ccc12 [Example 105, 7-chloro-4-ethyl-1-phenylhydro-quinazolin-2-one]"
8,1000 to 10000,"CNc1nc(=O)n(-c2nccc(OC)n2)c2cc(Cl)ccc12 [Example 106, 7-chloro-1-(4-methoxypyrimidin-2-yl)-4-(methylamino)hydroquinazolin-2-one]"
9,< 200,"CNc1nc(=O)n(-c2cc(O)ccc2C)c2cc(Cl)ccc12 [Example 109, 7-chloro-1-(3-hydroxy-6-methylphenyl)-4-(methylamino)hydroquinazolin-2-one]"
10,< 200,"Cc1c(O)cccc1-n1c(=O)[nH]c(=O)c2ccc(Cl)cc21 [Example 110, 7-chloro-1-(3-hydroxy-2-methylphenyl)-1,3-dihydroquinazoline-2,4-dione]"
11,< 200,"CNc1nc(=O)n(-c2cccnc2)c2cc(Cl)ccc12 [Example 114, 7-chloro-4-(methylamino)-1-(3-pyridyl)-hydroquinazolin-2-one]"
12,< 200,"CCc1ccc2c(NC)nc(=O)n(-c3ccccc3)c2c1 [Example 115, 7-ethyl-4-(methylamino)-1-phenylhydro-quinazolin-2-one]"
13,1000 to 10000,"CNc1nc(=O)n(-c2nc(C)cs2)c2cc(Cl)ccc12 [Example 117, 7-chloro-1-(4-methyl(1,3-thiazol-2-yl))-4-(methylamino)hydroquinazolin-2-one]"
14,< 200,O=c1nc(NCC(F)(F)F)c2ccc(C(F)(F)F)cc2n1-c1ccccc1 [Example 118]
15,< 200,"O=c1nc(NCC(F)F)c2ccc(C(F)(F)F)cc2n1-c1ccccc1 [Example 119, 4-[(2,2-difluoroethyl)amino]-1-phenyl-7-(trifluoromethyl)hydroquinazolin-2-one]"
16,1000 to 10000,COc1nc(=O)n(-c2ncccn2)c2cc(C(F)(F)F)ccc12 [Example 120]

row,Compound,IC50 [nM]
1,"4-(3,3-difluoropyrrolidin-1-yl)-7- chloro-1-phenylhydroquinazolin-2-one [Example 207]",< 200

# Same assay, conditions: L-methionine 500 uM, ATP 500 uM, numeric bound
row,IC50 [nM],Compound
1,> 10000,"CNc1nc(=O)n(-c2ccccc2)c2cc(Cl)cc(OC3CNC3)c12 [Example 85, 5-azetidin-3-yloxy-7-chloro-4-(methyl-amino)-1-phenylhydroquinazolin-2-one]"
2,> 10000,"CNc1nc(=O)n(-c2cc(OC)ccn2)c2nc(C(F)(F)F)ccc12 [Example 93, 1-(4-methoxypyridin-2-yl)-4-(methyl-amino)-7-(trifluoromethyl)pyrido[2,3-d]pyrimidin-2(1H)-one]"
3,> 10000,"CC(C)c1nc(=O)n(-c2ccccc2)c2cc(Cl)ccc12 [Example 104, 7-chloro-4-(methylethyl)-1-phenylhydro-quinazolin-2-one]"
4,> 10000,"Nc1nc(=O)n(-c2ccccc2)c2cc(Cl)cc(-n3nccn3)c12 [Example 112, 4-amino-7-chloro-1-phenyl-5-(1,2,3-triazol-2-yl)hydroquinazolin-2-one]"
5,> 10000,"CNc1nc(=O)n(-c2nc(C(F)(F)F)cs2)c2cc(Cl)ccc12 [Example 113, 7-chloro-4-(methylamino)-1-[4-(trifluoromethyl)(1,3-thiazol-2-yl)]hydroquinazolin-2-one]"
6,> 10000,"CNc1nc(=O)n(-c2ncc(C)s2)c2cc(Cl)ccc12 [Example 116, 7-chloro-1-(5-methyl(1,3-thiazol-2-yl))-4-(methylamino)hydroquinazolin-2-one]"
